Experimental findings from PMC3419607, “Effect of Alpinia zerumbet components on antioxidant and skin diseases-related enzymes” (BMC Complementary and Alternative Medicine, 2012) are described below.

Converted amounts (≈) assume the structure as drawn.

Experiment [1] is described as follows: DPPH radical scavenging activity assay. To be noted: 30 min, 517 nm. The procedure: The free radical scavenging activity was evaluated as described previously. Five hundred microlilters of the different concentration of test samples were mixed with 200 μl of 0.5 mM DPPH methanol solution and 500 μl of 0.1 M sodium acetate buffer (pH 5.5). After shaking, the mixture was incubated in the dark at room temperature for 30 min, and then the absorbance was measured at 517 nm. BHT was used as a positive control, while water and methanol were used as controls for calculation.
(§1) The ability of the extracts to scavenge DPPH, ABTS^·+, PMS-NADH radicals were calculated by following formula:
(§2) Radical scavenging (%) = [(O.Dcontrol – O.Dsample)/ O.Dcontrol] x 100,
(§3) where O.D is the optical density in the presence or absence of the samples.
Background: The DPPH test is a chemical assay of radical scavenging.

Experiment [2] can be described thus: Total antioxidant activity (ABTS) assay. To be noted: ABTS radical scavenging, 6 min, 734 nm. The procedure:
The total antioxidant activity of test sample was measured with modified method as described previously. ABTS^·+ solution was generated by mixing 7 mM ABTS and 2.45 mM potassium persulfate (K2S2O8) in water, which was placed in the dark at room temperature for 16 h to give the complete oxidation of ABTS. Before using, the ABTS^·+ solution was diluted with water to get an absorbance of 0.700 ± 0.050 at 734 nm. Briefly, 1 ml of ABTS^·+ solution was added to 30 μl of test samples and mixed thoroughly. BHT was used as positive control and the sample solutions were used as controls. The reactive mixture was incubated at room temperature for 6 min and the absorbance was immediately recorded at 734 nm.
as §1, §2, §3

Experiment [3] can be described thus: PMS-NADH system superoxide-radical scavenging assay. To be noted: 560 nm. Here is the method: The superoxide scavenging activity was assayed following the method of Lau et al. with minor modifications. The reaction mixture contained 0.5 ml of 105 μM NADH, 0.5 ml of 66 μM NBT dissolved in 0.1 M phosphate buffer (pH 7.4) and 0.1 ml sample in different concentrations. The reaction was initiated by adding 0.5 ml of 30 μM PMS into the reaction mixture. Methanol and water were used as a control and BHT as a positive control. After 10 min, the reaction mixture reached to stable color, measurement of absorbance was conducted at 560 nm.
as §1, §2, §3

Experiment [4] has as its target Collagenase from Clostridium histolyticum (ChC). Description: Collagenase inhibition assay (FALGPA substrate). It is filed as biochemical. To be noted: plant parts: aqueous extract. The procedure: Collagenase inhibition assay was performed by the method described previously which based on the hydrolysis of N-[3-(2-furyl)acryloyl]-Leu-Gly-Pro-Ala (FALGPA) by collagenase to produce FA-Leu and Gly-Pro-Ala. The assay was performed in 50 mM Tricine buffer (400 mM NaCl and 10 mM CaCl2, pH 7.5). Collagenase from Clostridium histolyticum (ChC) was dissolved in the buffer for use at an initial concentration of 0.8 units/ ml. The synthetic substrate, FALGPA, was dissolved in the Tricine buffer to 2 mM. Sample extracts were incubated with the enzyme in the buffer for 15 min before adding substrate to start reaction. The final reaction mixture (150 μl total volume) contained Tricine buffer, 0.8 mM of FALGPA, 0.1 units of ChC and 25 μg of test extracts. Controls were performed with water and methanol, while oleanolic acid as a positive control. After adding substrate for 20 min, collagenase activity was measured at 340 nm.
The percentage inhibition for collagenase, elastase and hyaluronidase assays were calculated by:
Enzyme inhibition activity (%) = (1– B/A) x 100, where A is the enzyme activity without sample and B is the activity in presence of the sample.

In experiment [5] the target is T1, elastase from porcine pancreas (Sus scrofa, UniProt P00772).
T1 construct: from tissue; host or cells: porcine pancreas
T1 sequence (P00772 27-266): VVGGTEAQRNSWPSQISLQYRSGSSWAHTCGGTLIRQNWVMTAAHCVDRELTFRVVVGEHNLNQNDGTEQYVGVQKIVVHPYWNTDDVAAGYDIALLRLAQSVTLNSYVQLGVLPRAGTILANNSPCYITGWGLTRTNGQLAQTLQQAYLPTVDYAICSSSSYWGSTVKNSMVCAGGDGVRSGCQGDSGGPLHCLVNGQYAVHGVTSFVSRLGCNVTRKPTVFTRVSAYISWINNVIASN
Put plainly: Elastase inhibition assay (SANA substrate). The class given is biochemical. Particulars: plant parts: aqueous extract. From the text:
The inhibitory activity determined the intensity of color released during cleavage of SANA by the action of elastase.

Experiment [6] deals with T2, hyaluronidase from bovine test (Bos taurus, UniProt Q2YDK3).
T2 construct: from tissue; host or cells: bovine testes (printed 'bovine test')
T2 sequence (Q2YDK3 36-553): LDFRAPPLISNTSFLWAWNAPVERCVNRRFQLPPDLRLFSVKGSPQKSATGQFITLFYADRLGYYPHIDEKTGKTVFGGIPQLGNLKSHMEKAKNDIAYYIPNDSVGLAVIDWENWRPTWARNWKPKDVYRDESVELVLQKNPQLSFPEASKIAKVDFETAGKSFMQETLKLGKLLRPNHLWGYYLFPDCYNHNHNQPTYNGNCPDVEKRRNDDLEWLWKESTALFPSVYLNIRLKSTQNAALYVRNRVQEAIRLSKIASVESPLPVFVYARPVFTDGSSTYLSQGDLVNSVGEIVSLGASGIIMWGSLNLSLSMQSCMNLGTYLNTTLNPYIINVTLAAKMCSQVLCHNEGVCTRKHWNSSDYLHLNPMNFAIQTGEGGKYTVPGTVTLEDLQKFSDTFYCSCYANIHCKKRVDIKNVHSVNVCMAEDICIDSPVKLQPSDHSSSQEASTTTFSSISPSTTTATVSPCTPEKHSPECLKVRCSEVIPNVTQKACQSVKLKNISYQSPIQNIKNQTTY
Put plainly: Hyaluronidase inhibition assay. It is filed as biochemical. Particulars: plant parts: aqueous extract.
Method: Hyaluronidase inhibitory assay was performed by the method described previously [21] which depends on the fact that substance forms a precipitate with protein in an acidic solution. A test sample of 5 μl was pre-incubated with hyaluronidase from bovine test (1.50 units in 100 μl), sodium phosphate buffer 20 mM (pH 7.0) with sodium chloride 77 mM and bovine serum albumin (BSA) 0.01% for 10 min at 37 °C. […] It was allowed to stand at room temperature for 10 min and then the absorbance was measured at 600 nm. Oleanolic acic was used as positive control and the sample solutions were used as controls.

Turning to `COc1cc(/C=C/c2ccccc2)oc(=O)c1` [DK, 5,6-dehydrokawain], the “Inhibitory effect (IC50) DPPH” value in experiment [1] is 122.14 ± 1.40 µg/mL. Besides, the “Inhibitory effect (IC50) ABTS” value in experiment [2] was 110.08 ± 3.34 µg/mL. In experiment [3], the “Inhibitory effect (IC50) PMS-NADH” value came to 127.78 ± 4.75 µg/mL. The IC50 collagenase inhibition in experiment [4] was found to be 24.93 ± 0.97 µg/mL (≈ 109 µM). Moreover, the results for the IC50 in experiment [5] and in experiment [6] were 85 µM and 85.3 µM, respectively.

With `Cc1cc(C(C)(C)C)c(O)c(C(C)(C)C)c1` [BHT, tert-butyl hydroxytoluene, reference compound], in experiment [1], the “Inhibitory effect (IC50) DPPH” value is listed as 11.74 ± 0.15 a ^1 μg/mL. Besides, the “Inhibitory effect (IC50) ABTS” value in experiment [2] came out at 14.26 ± 0.16 a μg/mL. Also, the “Inhibitory effect (IC50) PMS-NADH” value in experiment [3] was found to be 24.80 ± 0.98 a μg/mL.

Take `CC1(C)CC[C@]2(C(=O)O)CC[C@]3(C)C(=CC[C@@H]4[C@@]5(C)CC[C@H](O)C(C)(C)[C@@H]5CC[C@]43C)[C@@H]2C1` [oleanolic acid, reference compound]: in experiment [4], the IC50 collagenase inhibition is 17.95 ± 0.23 µg/mL (≈ 39.3 µM).
